Laboratory results published in ChEMBL document CHEMBL1201862, “PubChem BioAssay data set” (2004).
The source made the active and inactive calls.

What was measured:
H9c2 = assay: cells; format: functional, cell-based; settings: Rattus norvegicus, H9c2, Myocardium;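 further: confirmatory concentration-response retest of ultra-high-throughput screening hits for modulation of myocardial damage; cell death induced by hydrogen peroxide oxidative stress; compound pretreatment for 60 min then peroxide exposure for 2 h; potency is for protecting the cells against peroxide damage rather than for killing them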
Melanocortin receptor 4 = Melanocortin receptor 4 (Homo sapiens, UniProt P32245); format: functional, cell-based;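 further: Cell-based assay with luminescence read-out, confirmatory dose-response testing for agonist activity of biased ligands at MC4R; human U2OS cells with tagged receptor and beta-arrestin; potency of agonists that increase receptor coupling to beta-arrestin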
Melanocortin receptor 4, sequence (P32245 whole entry): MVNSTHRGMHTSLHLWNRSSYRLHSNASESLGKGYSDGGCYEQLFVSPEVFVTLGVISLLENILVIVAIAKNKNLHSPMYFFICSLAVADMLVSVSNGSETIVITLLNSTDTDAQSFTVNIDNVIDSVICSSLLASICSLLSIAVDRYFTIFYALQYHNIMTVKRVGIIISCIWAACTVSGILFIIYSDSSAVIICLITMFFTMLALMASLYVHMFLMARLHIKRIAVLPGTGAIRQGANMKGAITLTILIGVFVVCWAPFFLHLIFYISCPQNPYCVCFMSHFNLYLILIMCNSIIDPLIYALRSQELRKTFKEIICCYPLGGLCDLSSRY

[1] = molecular target: T1, High affinity choline transporter 1 (Homo sapiens, UniProt Q9GZV3); assay: CHT inhibitors, dose response, cell-based, 10-point CRC, membrane potential dye (AID 588401); format: functional;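 further: membrane potential dye fluorescence of choline-evoked depolarization via CHT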
T1 sequence (Q9GZV3 whole entry): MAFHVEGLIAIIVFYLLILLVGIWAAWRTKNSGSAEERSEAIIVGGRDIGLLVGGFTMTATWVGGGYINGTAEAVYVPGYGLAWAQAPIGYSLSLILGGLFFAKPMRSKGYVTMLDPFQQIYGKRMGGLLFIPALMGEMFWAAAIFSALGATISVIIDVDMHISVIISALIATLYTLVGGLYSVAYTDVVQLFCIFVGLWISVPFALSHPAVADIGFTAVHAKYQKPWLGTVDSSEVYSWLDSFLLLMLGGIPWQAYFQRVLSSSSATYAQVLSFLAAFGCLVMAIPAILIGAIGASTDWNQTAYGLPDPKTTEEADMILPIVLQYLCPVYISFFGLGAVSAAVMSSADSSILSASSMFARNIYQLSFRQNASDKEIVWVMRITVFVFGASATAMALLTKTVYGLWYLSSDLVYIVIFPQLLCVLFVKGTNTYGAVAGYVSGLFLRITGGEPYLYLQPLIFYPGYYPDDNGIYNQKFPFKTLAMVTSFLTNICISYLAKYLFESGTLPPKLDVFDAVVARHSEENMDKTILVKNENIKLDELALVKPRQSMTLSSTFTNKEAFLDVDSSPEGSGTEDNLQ

[2] = molecular target: T1, High affinity choline transporter 1; assay: CHT inhibitors, dose response, cell-based, 5-point CRC, membrane potential dye (AID 504840); format: functional
[3] = molecular target: T2, Apoptotic protease-activating factor 1 (Homo sapiens, UniProt O14727); assay: SAR analysis of small molecule Activators of Apaf-1 in a Fluorescent assay.; format: functional; settings: read-out: EC50_Mean;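 further: caspase-3 cleavage of fluorogenic Rh110 DEVD substrate downstream of apoptosome activation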
T2 sequence (O14727 whole entry): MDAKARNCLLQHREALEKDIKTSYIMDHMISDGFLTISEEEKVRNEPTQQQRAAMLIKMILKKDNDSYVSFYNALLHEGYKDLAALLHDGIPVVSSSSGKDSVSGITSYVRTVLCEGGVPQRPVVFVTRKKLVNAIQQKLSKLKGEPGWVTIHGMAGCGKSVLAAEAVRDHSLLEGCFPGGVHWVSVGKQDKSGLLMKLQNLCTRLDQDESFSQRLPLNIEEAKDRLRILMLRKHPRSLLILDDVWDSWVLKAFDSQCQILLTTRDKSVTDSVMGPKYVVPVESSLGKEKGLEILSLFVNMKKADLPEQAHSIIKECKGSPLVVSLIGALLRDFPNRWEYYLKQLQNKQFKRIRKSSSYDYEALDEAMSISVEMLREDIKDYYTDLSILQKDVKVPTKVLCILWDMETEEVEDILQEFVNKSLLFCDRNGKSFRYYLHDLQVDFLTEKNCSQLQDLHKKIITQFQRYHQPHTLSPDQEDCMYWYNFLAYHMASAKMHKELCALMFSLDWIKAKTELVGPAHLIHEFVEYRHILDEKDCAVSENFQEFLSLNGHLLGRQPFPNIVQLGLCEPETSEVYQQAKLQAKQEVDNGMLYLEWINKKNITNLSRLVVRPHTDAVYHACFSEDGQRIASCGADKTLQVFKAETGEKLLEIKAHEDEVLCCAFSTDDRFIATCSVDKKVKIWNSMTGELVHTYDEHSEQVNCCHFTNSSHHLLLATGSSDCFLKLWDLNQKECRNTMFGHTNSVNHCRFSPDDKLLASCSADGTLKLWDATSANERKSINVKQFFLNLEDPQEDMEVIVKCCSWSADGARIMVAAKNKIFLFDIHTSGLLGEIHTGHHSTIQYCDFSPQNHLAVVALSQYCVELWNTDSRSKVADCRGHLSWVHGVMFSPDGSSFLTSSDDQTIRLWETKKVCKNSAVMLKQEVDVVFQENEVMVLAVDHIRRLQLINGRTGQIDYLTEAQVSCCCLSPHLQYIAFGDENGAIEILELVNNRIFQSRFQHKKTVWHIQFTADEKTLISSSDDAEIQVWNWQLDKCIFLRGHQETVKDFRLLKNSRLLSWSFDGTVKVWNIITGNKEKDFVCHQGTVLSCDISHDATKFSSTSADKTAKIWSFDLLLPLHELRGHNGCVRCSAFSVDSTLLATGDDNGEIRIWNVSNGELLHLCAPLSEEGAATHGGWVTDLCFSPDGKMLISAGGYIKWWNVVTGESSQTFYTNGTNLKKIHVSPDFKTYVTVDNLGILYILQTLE

Vero = Vero cell cytotoxicity, cytotoxicity control for flavivirus capping enzyme inhibitors (AID 588742); format: functional; settings: Chlorocebus sabaeus
[4] = molecular target: T3, Zinc finger protein mex-5 (Caenorhabditis elegans, UniProt Q9XUB2); assay: MEX-5/TCR-2 RNA interaction inhibitors, dose response, biochemical, C. elegans, fluorescence polarization (AID 1960)
T3 sequence (Q9XUB2 whole entry): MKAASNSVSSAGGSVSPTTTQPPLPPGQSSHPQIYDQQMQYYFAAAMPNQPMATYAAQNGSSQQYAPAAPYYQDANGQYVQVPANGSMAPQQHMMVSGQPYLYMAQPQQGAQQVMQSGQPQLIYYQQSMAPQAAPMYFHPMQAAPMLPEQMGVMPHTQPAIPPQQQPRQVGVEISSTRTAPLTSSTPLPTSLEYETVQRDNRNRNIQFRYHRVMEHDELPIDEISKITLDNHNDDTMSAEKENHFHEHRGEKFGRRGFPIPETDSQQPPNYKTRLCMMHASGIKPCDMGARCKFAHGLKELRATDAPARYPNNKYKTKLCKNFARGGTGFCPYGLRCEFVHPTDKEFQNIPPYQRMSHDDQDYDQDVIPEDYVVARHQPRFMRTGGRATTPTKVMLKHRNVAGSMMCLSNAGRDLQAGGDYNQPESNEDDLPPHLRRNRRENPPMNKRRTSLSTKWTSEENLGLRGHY

[5] = molecular target: T4, Replicative DNA helicase DnaB (Mycobacterium tuberculosis, UniProt P9WMR3); assay: DnaB intein splicing inhibitors, dose response, biochemical, cell-free fluorescence (AID 449749); format: functional
T4 sequence (P9WMR3 whole entry): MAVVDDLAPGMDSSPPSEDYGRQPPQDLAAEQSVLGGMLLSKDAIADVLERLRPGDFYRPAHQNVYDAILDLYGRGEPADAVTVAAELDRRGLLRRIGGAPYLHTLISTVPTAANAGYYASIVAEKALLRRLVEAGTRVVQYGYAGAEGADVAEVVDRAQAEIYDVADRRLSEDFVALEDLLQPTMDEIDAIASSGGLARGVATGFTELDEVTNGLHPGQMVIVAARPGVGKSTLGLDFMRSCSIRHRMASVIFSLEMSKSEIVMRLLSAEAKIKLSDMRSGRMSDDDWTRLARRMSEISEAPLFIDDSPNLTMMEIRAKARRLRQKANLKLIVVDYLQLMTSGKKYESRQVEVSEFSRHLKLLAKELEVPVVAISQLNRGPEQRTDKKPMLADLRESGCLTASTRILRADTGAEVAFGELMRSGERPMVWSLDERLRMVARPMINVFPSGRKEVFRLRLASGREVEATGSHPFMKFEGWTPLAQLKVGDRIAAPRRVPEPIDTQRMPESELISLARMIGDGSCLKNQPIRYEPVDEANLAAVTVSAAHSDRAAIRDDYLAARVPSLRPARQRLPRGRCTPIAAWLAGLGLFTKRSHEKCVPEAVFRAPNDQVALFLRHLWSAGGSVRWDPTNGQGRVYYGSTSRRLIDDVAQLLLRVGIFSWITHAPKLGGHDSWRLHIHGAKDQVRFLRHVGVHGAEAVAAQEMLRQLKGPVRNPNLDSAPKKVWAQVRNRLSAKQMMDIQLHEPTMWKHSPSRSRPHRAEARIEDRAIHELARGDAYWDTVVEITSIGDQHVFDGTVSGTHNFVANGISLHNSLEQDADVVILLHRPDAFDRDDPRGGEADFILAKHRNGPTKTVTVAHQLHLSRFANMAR

[6] = molecular target: Cystic fibrosis transmembrane conductance regulator/Golgi-associated PDZ and coiled-coil motif-containing protein (Homo sapiens, UniProt P13569+Q9HD26); assay: CAL PDZ peptide-binding inhibitors, dose response, biochemical, fluorescence polarization, Cerulean-tagged CAL PDZ, cherry-picks (AID 504773)
[7] = molecular target: Glucose-6-phosphate 1-dehydrogenase (Homo sapiens, UniProt P11413); assay: human G6PD enzyme inhibitors, dose response, selectivity assay for P. falciparum G6PD inhibitor project, biochemical, fluorescence (AID 504792); format: functional
Glucose-6-phosphate 1-dehydrogenase, sequence (P11413 whole entry, the tested form may be a part): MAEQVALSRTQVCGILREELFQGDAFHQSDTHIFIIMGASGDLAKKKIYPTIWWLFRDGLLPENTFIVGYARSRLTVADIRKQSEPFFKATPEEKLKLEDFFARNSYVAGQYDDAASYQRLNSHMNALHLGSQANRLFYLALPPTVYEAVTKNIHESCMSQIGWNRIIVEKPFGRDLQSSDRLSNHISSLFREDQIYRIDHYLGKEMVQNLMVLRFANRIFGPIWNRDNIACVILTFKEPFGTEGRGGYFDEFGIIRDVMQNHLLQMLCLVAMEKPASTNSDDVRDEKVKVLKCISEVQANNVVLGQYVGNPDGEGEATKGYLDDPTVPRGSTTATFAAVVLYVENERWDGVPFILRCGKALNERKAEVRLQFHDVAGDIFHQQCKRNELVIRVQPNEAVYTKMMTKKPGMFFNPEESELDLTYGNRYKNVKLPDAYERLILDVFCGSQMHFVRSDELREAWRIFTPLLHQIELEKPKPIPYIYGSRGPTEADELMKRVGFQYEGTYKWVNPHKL

[8] = molecular target: T5, RNA-binding protein pos-1 (Caenorhabditis elegans, UniProt G5EF15); assay: inhibitors of POS-1/mex-3 RNA binding, dose response, biochemical, fluorescence polarization (AID 1964);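 further: purified POS-1 fused to maltose binding protein made in E. coli; potency of compounds blocking POS-1 binding to fluorescent RNA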
T5 sequence (G5EF15 whole entry): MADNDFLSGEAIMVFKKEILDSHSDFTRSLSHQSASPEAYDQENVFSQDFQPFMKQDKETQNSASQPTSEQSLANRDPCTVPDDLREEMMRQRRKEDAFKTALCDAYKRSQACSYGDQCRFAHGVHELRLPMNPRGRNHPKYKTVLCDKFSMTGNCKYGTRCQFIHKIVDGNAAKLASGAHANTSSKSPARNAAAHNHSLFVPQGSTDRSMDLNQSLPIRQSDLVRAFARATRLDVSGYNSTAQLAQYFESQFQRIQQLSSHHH

[9] = inhibitors of firefly luciferase expression or activity, dose response, H4 neuroglioma cells, luminescence (AID 1990); format: functional, cell-based
[10] = inhibitors of SNCA 5'UTR-driven reporter translation, confirmation, H4 neuroglioma cells, luminescence (AID 1988); format: functional, cell-based
[11] = molecular target: Tyrosyl-DNA phosphodiesterase 2 (Homo sapiens, UniProt O95551); assay: human TDP2 enzyme inhibitors, dose response, biochemical, epi absorbance, IC50 (AID 743297)
Tyrosyl-DNA phosphodiesterase 2, sequence (O95551 whole entry, the tested form may be a part): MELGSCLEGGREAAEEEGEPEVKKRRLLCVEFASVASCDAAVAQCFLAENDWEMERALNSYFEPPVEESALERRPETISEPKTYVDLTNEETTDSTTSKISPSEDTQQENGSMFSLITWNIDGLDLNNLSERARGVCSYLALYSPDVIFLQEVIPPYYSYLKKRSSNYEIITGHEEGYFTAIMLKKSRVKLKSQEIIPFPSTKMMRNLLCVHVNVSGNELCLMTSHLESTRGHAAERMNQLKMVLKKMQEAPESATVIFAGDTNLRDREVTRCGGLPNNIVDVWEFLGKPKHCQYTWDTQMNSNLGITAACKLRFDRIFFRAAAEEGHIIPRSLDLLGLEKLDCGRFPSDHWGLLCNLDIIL

[12] = CAL PDZ domain peptide-binding inhibitors, dose response, biochemical, fluorescence polarization, untagged CAL PDZ, dry powder (AID 602255); format: functional
[13] = Luminescence Cell-Based Dose Response HTS to Identify Inhibitors of 5'UTR Stem-Loop Driven Prion Protein mRNA Translation in H4 Neuroglioblastoma Cells. [Related pubchem assays: 1827 (Project Summary), 1813 (Primary HTS)]; format: functional
Genome polyprotein = Genome polyprotein (dengue virus type 2, UniProt P29990); assay: Dengue-2 NS5 methyltransferase inhibitors, primary screen, biochemical, confirmation dose response (AID 588689); format: functional
Genome polyprotein, sequence (P29990 2492-3391 limits assumed): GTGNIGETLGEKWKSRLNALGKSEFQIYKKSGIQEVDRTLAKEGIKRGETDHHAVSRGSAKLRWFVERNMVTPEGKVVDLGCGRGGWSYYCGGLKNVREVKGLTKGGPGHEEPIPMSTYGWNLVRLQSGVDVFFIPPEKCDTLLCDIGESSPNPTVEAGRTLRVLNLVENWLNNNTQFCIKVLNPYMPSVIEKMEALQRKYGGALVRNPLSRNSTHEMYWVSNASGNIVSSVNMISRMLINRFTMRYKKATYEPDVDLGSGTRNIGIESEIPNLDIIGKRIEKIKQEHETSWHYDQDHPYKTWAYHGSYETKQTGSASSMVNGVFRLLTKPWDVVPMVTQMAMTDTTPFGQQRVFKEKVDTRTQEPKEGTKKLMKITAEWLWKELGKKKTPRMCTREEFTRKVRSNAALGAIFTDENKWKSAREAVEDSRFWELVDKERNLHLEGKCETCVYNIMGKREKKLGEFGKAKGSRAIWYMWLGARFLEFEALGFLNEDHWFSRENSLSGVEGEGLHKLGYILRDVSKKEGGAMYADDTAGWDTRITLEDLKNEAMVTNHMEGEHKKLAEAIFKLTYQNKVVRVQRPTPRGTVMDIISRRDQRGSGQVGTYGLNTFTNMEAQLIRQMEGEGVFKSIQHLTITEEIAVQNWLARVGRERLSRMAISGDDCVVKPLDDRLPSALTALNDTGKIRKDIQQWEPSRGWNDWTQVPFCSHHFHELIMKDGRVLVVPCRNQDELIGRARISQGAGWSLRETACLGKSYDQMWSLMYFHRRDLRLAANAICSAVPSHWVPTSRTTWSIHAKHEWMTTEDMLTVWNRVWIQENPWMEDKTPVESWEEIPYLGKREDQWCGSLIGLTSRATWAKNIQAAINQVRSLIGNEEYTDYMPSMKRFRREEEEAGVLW

Protein RecA = molecular target: T6, Protein RecA (Mycobacterium tuberculosis, UniProt P9WHJ3); assay: Fluorescence Cell-Free Homogeneous Dose Retest to Identify Inhibitors of RecA-Intein Splicing Activity. [Related pubchem assays (depositor defined):AID2097, AID2223, AID489010, AID492950]; format: functional
T6 sequence (P9WHJ3 whole entry): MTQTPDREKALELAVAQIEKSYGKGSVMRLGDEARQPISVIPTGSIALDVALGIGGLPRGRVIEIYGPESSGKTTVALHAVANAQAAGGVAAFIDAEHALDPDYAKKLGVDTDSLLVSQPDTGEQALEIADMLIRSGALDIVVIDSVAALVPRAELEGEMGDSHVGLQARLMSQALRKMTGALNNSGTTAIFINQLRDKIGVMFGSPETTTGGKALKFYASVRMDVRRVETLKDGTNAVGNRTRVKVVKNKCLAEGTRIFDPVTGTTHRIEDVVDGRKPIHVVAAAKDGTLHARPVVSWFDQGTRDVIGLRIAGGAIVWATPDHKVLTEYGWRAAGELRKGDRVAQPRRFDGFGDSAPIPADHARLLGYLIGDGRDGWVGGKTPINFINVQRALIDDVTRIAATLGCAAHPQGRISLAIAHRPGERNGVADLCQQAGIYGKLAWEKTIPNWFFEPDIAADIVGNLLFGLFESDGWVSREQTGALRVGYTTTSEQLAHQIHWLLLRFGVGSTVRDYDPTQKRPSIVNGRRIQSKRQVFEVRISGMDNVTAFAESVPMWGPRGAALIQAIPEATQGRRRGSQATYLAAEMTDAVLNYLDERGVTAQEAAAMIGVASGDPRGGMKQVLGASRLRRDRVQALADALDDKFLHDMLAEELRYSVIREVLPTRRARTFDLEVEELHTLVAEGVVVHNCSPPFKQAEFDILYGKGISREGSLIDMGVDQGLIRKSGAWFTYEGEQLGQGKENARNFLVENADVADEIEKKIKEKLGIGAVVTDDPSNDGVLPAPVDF

Albumin = Albumin (Bos taurus, UniProt P02769); assay: Counterscreen for inhibitors of T-cell receptor (TCR)-CD3 interaction: Fluorescence-based biochemical high throughput dose response assay to identify inhibitors of T-cell receptor (TCR)-CD3 interaction using a TAMRA-labeled BSA probe.; format: functional
Albumin, sequence (P02769 whole entry): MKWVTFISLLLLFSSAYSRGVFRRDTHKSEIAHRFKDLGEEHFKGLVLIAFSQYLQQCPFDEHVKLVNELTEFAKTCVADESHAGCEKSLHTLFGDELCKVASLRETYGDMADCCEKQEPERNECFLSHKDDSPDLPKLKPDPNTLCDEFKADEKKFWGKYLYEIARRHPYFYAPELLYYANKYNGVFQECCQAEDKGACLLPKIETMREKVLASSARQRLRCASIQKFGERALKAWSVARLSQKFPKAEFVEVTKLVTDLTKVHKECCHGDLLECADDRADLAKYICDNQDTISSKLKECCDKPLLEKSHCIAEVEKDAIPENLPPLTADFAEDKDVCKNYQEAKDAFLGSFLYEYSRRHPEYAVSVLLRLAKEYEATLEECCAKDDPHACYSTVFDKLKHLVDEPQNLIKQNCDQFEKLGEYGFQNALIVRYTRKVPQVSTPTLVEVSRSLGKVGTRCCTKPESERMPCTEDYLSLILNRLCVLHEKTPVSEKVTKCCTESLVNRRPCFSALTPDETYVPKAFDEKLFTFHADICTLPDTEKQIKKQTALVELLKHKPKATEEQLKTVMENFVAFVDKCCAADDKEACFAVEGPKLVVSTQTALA

[14] = molecular target: DNA (cytosine-5)-methyltransferase 1 (Homo sapiens, UniProt P26358); assay: DNMT1 methyltransferase inhibitors, confirmation, biochemical, fluorescent molecular beacon (AID 602386); format: functional
DNA (cytosine-5)-methyltransferase 1, sequence (P26358 whole entry): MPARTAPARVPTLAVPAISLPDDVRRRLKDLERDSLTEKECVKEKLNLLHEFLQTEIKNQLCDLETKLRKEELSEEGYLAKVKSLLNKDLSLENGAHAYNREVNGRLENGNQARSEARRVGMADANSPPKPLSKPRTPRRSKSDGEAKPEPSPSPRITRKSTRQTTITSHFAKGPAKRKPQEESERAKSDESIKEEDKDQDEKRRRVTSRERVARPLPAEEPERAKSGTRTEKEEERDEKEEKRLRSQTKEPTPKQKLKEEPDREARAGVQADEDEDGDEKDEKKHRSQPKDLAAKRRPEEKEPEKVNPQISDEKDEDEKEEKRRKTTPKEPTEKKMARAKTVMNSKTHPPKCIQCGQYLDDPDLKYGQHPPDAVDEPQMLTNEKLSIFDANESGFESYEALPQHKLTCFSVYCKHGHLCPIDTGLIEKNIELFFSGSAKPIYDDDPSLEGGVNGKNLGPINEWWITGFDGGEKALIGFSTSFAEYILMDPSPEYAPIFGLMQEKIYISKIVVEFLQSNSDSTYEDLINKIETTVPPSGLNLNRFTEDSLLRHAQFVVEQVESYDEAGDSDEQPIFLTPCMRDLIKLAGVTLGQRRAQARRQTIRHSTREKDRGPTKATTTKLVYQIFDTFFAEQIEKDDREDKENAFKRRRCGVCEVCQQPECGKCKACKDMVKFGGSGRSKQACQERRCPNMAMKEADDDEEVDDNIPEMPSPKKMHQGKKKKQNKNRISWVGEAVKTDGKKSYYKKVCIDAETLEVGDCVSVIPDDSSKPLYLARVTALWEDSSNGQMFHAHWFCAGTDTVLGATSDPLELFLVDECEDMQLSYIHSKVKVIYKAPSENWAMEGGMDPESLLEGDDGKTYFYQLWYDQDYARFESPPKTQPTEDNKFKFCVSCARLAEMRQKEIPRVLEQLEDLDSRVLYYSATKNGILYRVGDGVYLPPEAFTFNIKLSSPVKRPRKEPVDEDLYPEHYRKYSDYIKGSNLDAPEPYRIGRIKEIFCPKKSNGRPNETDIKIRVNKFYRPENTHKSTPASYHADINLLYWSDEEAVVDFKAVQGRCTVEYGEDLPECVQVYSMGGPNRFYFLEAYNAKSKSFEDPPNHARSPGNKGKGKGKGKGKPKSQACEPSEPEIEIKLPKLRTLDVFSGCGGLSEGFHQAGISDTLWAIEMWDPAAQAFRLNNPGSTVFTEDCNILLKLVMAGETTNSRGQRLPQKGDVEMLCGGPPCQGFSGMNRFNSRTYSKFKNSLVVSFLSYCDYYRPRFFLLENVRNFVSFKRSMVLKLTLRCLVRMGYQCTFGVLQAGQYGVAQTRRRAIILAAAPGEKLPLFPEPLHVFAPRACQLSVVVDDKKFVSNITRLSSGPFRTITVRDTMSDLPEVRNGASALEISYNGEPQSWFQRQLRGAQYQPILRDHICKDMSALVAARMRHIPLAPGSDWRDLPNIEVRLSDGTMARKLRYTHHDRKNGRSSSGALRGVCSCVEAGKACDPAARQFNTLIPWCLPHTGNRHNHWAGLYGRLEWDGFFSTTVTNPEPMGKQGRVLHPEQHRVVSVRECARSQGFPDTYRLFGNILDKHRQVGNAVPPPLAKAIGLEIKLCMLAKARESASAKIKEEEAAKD

[15] = molecular target: T7, Small ubiquitin-related modifier 1 (Homo sapiens, UniProt P63165); assay: inhibitors of SUMO1 peptide binding, dose response, biochemical, fluorescence polarization, uHTS hits (AID 624382); format: functional; settings: read-out: IC50_Mean
T7 sequence (P63165 whole entry): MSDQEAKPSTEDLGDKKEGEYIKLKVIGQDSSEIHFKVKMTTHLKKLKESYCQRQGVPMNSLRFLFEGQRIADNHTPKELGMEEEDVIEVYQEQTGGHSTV

[16] = molecular target: T7, Small ubiquitin-related modifier 1; assay: inhibitors of SUMO1 partner interactions, dose response, biochemical, FRET (AID 624383); format: functional; settings: read-out: IC50_Mean

COc1cc(-c2cc(NC=O)c3ncc(-c4ccc(C(C)=O)cc4)n3c2)cc(OC)c1OC
IC50 (H9c2): > 79 µM (inactive)
EC50 (Melanocortin receptor 4): > 89.2 µM (inactive)

COc1ccc(-c2nc(C=O)cs2)cc1
IC50 [1]: 3.57 µM (active)
IC50 [2]: 2.88 µM (active)

CCOc1ccccc1NC(=O)CCS(=O)(=O)c1ccc2c(c1)OCCO2
EC50 [3]: > 100 µM (inactive)

CCOc1ccc(S(=O)(=O)Nc2cc(SCC(=O)O)c(O)c3ccccc23)cc1
CC50 (Vero): 26.6 µM (active)
EC50 [4]: 11.9 µM (inconclusive)
AC50 [5]: 20.7 µM (active)
AC50 [6]: 36.2 µM (active)
IC50 [7]: 28.4 µM (inactive)
EC50 [8]: 78.8 µM (active)
EC50 [9]: > 120 µM (not active)
EC50 [10]: > 120 µM (not active)
IC50 [11]: 68.8 µM (inactive)
AC50 [12]: 54.4 µM (active)
EC50 [13]: > 120 µM (not active)
IC50 (Genome polyprotein): 7.49 µM (active)
EC50 (Protein RecA): 4.23 µM (active)

O=C(Cc1ccc(-n2c(=O)c3ccccc3n(Cc3ccccc3F)c2=O)cc1)NCC1CCCO1 (centres undefined)
IC50 [1]: 3.98 µM (active)
IC50 [2]: 7.14 µM (active)

c1coc(-c2ccc3nncn3c2)c1
IC50 (Albumin): > 94.2 µM (inactive)
IC50 [14]: 4.58 µM (active)
IC50 [15]: > 66.6 µM (inactive)
IC50 [16]: 7.19 µM (active)
